Measurements as given in patent US20130046012A1, “NEW COMPOUNDS, SYNTHESIS AND USE THEREOF IN THE TREATMENT OF PAIN” (LACER, S.A., priority 2010, published 2013).
Counter-ions that a name gives are not always drawn.

Key:
[1] = tested on: Male Swiss mice; test: Hot plate method (acute pain model); format: in vivo; conditions: Mus musculus, oral, 30 minutes before test, hot surface 55° C, dose producing 50% MPE, cutoff 60 seconds, read-out: HOT PLATE (ED50, p.o)
Method: The activity of some of the products was also tested using an acute pain model by using the hot plate method.
The method that was used is described by Eddy N. B. and Leimbach D. (J. Pharm. Exp. Ther. 107: 385-393, 1953). The analgesic effect of the products was evaluated analyzing the behavior of the animals on a hot surface at 55° C±1° C.
Male Swiss mice weighing 20-25 g were used. The compounds being tested were administered orally 30 minutes before starting the test.
The process consisted of placing the animals on the plate and keeping them in a Plexiglas cylinder 25 cm high and 21 cm […]. The time the animals took to jump off the hot surface was determined The animals were selected before starting the test so that those that took longer than 10 seconds to jump off (predrug latency) were not included in the group that would receive treatment.
A predrug latency time was determined before product treatment in all animals and 30 minutes after administering the product being tested, the test was repeated and the maximum time it took the animals to jump off (test latency) was again recorded.
The results are expressed in the table as ED50 that was calculated from % MPE (Maximum Posible Effect) determined as follows:
% MPE=100×(test latency−predrug latency)/(cutoff time−predrug latency)
The % MPE was measured for each compound at different dose levels (μmol/kg) and the ED50 values (dose of compound that produced 50% MPE) were obtained using a computer assisted linear regression analysis of the dose-response curve, including an analysis of variance test for linearity.

[2] = tested on: Male Swiss mice; test: Formalin test (analgesic activity, licking time of the injected paw); format: in vivo; conditions: p.o. 10 min before 5% formalin injection into hind paw, second phase (15-60 min), % inhibition of licking vs. control, Litchfield and Wilcoxon; for ED50: Mus musculus, po, read-out: FORMALIN TEST (ED50 p.o) Phase II
Method: The pharmacological activity of the products of the present invention was tested in vivo in formalin test model, which is known to evaluate neuropathic and inflammatory pain in animals.
The formalin test was introduced as a model of tonic pain in 1977, and has since […] been used extensively in rats and mice. In rats, formalin generates an initial phase of activity (5-10 min, phase 1), a quiescent interphase (5-10 min), and a second phase of activity (lasting 60-90 min, phase 2), and this is seen with spontaneous behaviors, firing of afferent neurons, and activity in dorsal horn neurons. Both active phases involve ongoing peripheral afferent neural activity; inflammation contributes to phase 2 activity and the interphase results from active inhibition. Responses are concentration dependent between 0.25% and 2.5%, plateau from 2.5% to 5%, and can decline at higher concentrations. Formalin also results in tissue edema, and this is longer lasting. Responses to formalin up to 2.5% are predominantly neurogenic, while at higher concentrations, responses involve a further prominent inflammatory component. Within the spinal cord, formalin increases c-Fos expression in neurons and causes activation of microglia, and these may contribute more prominently to longer term changes. Acute responses (to 90 min) may represent a model of ongoing acute pain involving inflammation and aspects of central sensitization, while longer term responses (days, weeks) may represent a model of changes involved in persistent pathological pain.
Male Swiss mice (weight range, 16-20 g) were used (n=6-8 per group).Mice were fasted for 3 hours before the administration of oral treatment with free access to drinking water before the experiment. All experiments were conducted in accordance with the “Guidelines on Ethical Standards for Investigation of Experimental Pain in Animals
Mice were housed in clear plastic chambers with a mirror placed at a 45° angle to allow an unobstructed view of the paws. Mice were injected into the dorsal surface of hind paw with 20 μl of dilute formalin (5%) using a 30-gauge needle. Treatments were administrated p.o. 10 min before formalin injection.
Nociceptive behavior was quantified measuring time spent licking the injected paw after injection.
For evaluation of antinociceptive effect of a potential drug for neuropathic pain, the quantization of the second phase of the test (15-60 min) is the most important. Controls animals were observed under identical conditions without receiving treatments before formalin injection.
For each dose of compound given the % inhibition of licking vs. control animals were calculated. ED50 was calculated using the method of Litchfield and Wilcoxon. At the end of the experiments, mice were humanely euthanized with a dose of sodium pentobarbital (150 mg/kg i.p.).

Structure (SMILES)	ED50 [1] [µmol/kg]	ED50 [2] [µmol/kg]	FORMALIN TEST (ED50 p.o) Phase II [2] [µmol/kg]
COc1cccc([C@@]2(O)CCCC[C@@H]2CN(C)C)c1 (relative stereo) [Tramadol hydrochloride, (1R,2R)-rel-2-[(dimethylamino)methyl]-1-(3-methoxyphenyl) cyclohexanol, reference compound]	66	139	
COc1cccc([C@@]2(O)CCCC[C@@H]2CN(C)C)c1 (single isomer, unassigned) [Tramadol Enantiomer R,R, reference compound]			126.6
COc1cccc([C@]2(O)CCCC[C@H]2CN(C)C)c1 (single isomer, unassigned) [Tramadol Enantiomer S,S, reference compound]			233.3
CN(C)CC1CCCCC1(O)c1cccc(OC(=O)CC2(CNC(=O)OC(C)(C)C)CCCCC2)c1 (centres unmarked) [Product of example 1, (1R2R, 1S25)-3-(2-((dimethylamino)methyl)-1-hydroxycyclohexyl)phenyl 2-(1-((tert-butoxycarbonylamino)methyl)cyclohexyl)acetate]	35.7	39.9	
CN(C)C[C@H]1CCCC[C@]1(O)c1cccc(OC(=O)CC2(CNC(=O)OC(C)(C)C)CCCCC2)c1 [Product of example 2]	8	17.2	
CN(C)C[C@@H]1CCCC[C@@]1(O)c1cccc(OC(=O)CC2(CNC(=O)OC(C)(C)C)CCCCC2)c1 [Product of example 3]		65.9	
CCOC(=O)NCC1(CC(=O)Oc2cccc(C3(O)CCCCC3CN(C)C)c2)CCCCC1 (centres unmarked) [Product of example 4, (1R2R, 1S2S) 3-(2-((dimethylamino)methyl)-1-hydroxycyclohexyl)phenyl 2-(1-((ethoxycarbonylamino)methyl)cyclohexyl)acetate]	26.3	19	
CCOC(=O)NCC1(CC(=O)Oc2cccc([C@@]3(O)CCCC[C@@H]3CN(C)C)c2)CCCCC1 [Product of example 5, 3-((1R,2R)-2-((dimethylamino)methyl)-1-hydroxycyclohexyl)phenyl 2-(1-((ethoxycarbonylamino)methyl)cyclohexyl)acetate]		6	
CCOC(=O)NCC1(CC(=O)Oc2cccc([C@]3(O)CCCC[C@H]3CN(C)C)c2)CCCCC1 [Product of example 13, 3-((1S,2S)-2-((dimethylamino)methyl)-1-hydroxycyclohexyl)phenyl 2-(1-((ethoxycarbonylamino)methyl)cyclohexyl)acetate]		28	
COC(=O)NCC1(CC(=O)Oc2cccc(C3(O)CCCCC3CN(C)C)c2)CCCCC1 (centres unmarked) [Product of example 14, (1R2R, 1S2S) 3-(2-((dimethylamino)methyl)-1-hydroxycyclohexyl)phenyl 2-(1-((methoxycarbonylamino)methyl)cyclohexyl)acetate]		44.5	
CC(C)OC(=O)NCC1(CC(=O)Oc2cccc(C3(O)CCCCC3CN(C)C)c2)CCCCC1 (centres unmarked) [Product of example 15, (1R2R, 1S2S) 3-(2-((dimethylamino)methyl)-1-hydroxycyclohexyl)phenyl 2-(1-((isopropoxycarbonylamino)methyl)cyclohexyl)acetate]		57.9	
CN(C)CC1CCCCC1(O)c1cccc(OC(=O)CC2(CNC(=O)OCc3ccccc3)CCCCC2)c1 (centres unmarked) [Product of example 16, (1R2R, 1S2S)3(2-((dimethylamino)methyl)-1-hydroxycyclohexyl)phenyl 2-(1-((benzyloxycarbonylamino)methyl)cyclohexyl)acetate]		37.9	
CN(C)CC1CCCCC1(O)c1cccc(OC(=O)CC2(CNC(=O)Oc3ccccc3)CCCCC2)c1 (centres unmarked) [Product of example 17, (1R2R, 1S2S)3(2-((dimethylamino)methyl)-1-hydroxycyclohexyl)phenyl 2-(1-((phenoxycarbonylamino)methyl)cyclohexyl)acetate]		39	
CC(=O)NCC1(CC(=O)Oc2cccc(C3(O)CCCCC3CN(C)C)c2)CCCCC1 (centres unmarked) [Product of example 18, (1R2R, 1S2S)3(2-((dimethylamino)methyl)-1-hydroxycyclohexyl)phenyl 2-(1-(acetamidomethyl)cyclohexyl)acetate]		30.4	
CCOC(=O)NCC1(CC(=O)Oc2cccc(C3=C(CN(C)C)CCCC3)c2)CCCCC1 [Product of example 19, 3-(2-((dimethylamino)methyl)cyclohex-1-enyl)phenyl 2-(1-((ethoxycarbonylamino)methyl)cyclohexyl)acetate]		62.7	
CCOC(=O)NCC1(CC(=O)Oc2cccc(C3=CCCCC3CN(C)C)c2)CCCCC1 (centres unmarked) [Product of example 20, 3-(6-((dimethylamino)methyl)cyclohex-1-enyl)phenyl 2-(1-((ethoxycarbonylamino)methyl)cyclohexyl)acetate]		59.7	
CCOC(=O)NCC1(CC(=O)Oc2cccc([C@@H](CC)[C@@H](C)CN(C)C)c2)CCCCC1 [Product of example 22, 3-((2R,3S)-1-(dimethylamino)-2-methylpentan-3-yl)phenyl 2-(1-((ethoxycarbonylamino)methyl)cyclohexyl)acetate]		30.4	
CCOC(=O)NC[C@H](CC(=O)Oc1cccc(C2(O)CCCCC2CN(C)C)c1)CC(C)C (stereo partly drawn) [Product of example 23, (1R2R, 1S2S)-(S)-3-(2-((dimethylamino)methyl)-1-hydroxycyclohexyl)phenyl 3-((ethoxycarbonylamino)methyl)-5-methylhexanoate]		75.2	
CCOC(=O)NC[C@H](CC(=O)Oc1cccc([C@@]2(O)CCCC[C@@H]2CN(C)C)c1)CC(C)C [Product of example 24, (S)-3-((1R,2R)-2-((dimethylamino)methyl)-1-hydroxycyclohexyl)phenyl 3-((ethoxycarbonylamino)methyl)-5-methylhexanoate]		56.9	
